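Each compound was tested at five concentrations against cells in 96-well plates for 48 hours. GI50: concentration for 50% inhibition of growth.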 Calls of active or inactive are those of the source. No stated cut-off is given here; in the data, active = GI50 up to about 1.1 µM and inactive = higher.
Columns and labels:
Assay in all cases: DTP human tumour cell line panel, 48 h
LOX IMVI = system: LOX IMVI
ACHN = system: ACHN
EKVX = system: EKVX
NCI/ADR-RES = system: NCI/ADR-RES
IGROV-1 = system: IGROV-1
OVCAR-5 = system: OVCAR-5
SNB-19 = system: SNB-19
HT-29 = system: HT-29
OVCAR-3 = system: OVCAR-3
OVCAR-4 = system: OVCAR-4
HCT-15 = system: HCT-15
HOP-92 = system: HOP-92
U-251 = system: U-251
HOP-62 = system: HOP-62
TK-10 = system: TK-10
HCT-116 = system: HCT-116
SK-MEL-2 = system: SK-MEL-2
MCF7 = system: MCF7
SF-539 = system: SF-539
KM12 = system: KM12

Row | SMILES | GI50 (LOX IMVI) | GI50 (ACHN) | GI50 (EKVX) | GI50 (NCI/ADR-RES) | GI50 (IGROV-1) | GI50 (OVCAR-5) | GI50 (SNB-19) | GI50 (HT-29) | GI50 (OVCAR-3) | GI50 (OVCAR-4) | GI50 (HCT-15) | GI50 (HOP-92) | GI50 (U-251) | GI50 (HOP-62) | GI50 (TK-10) | GI50 (HCT-116) | GI50 (SK-MEL-2) | GI50 (MCF7) | GI50 (SF-539) | GI50 (KM12)
1 | Cc1ccc(S(=O)(=O)OCC(=O)O)cc1 | > 100 µM (inactive) | > 100 µM (inactive) | > 100 µM (inactive) | > 100 µM (inactive) | > 100 µM (inactive) | > 100 µM (inactive) | > 100 µM (inactive) | > 100 µM (inactive) | > 100 µM (inactive) | > 100 µM (inactive) | > 100 µM | > 100 µM (inactive) | > 100 µM (inactive) | > 100 µM (inactive) | > 100 µM (inactive) | > 100 µM (inactive) | > 100 µM (inactive) |  |  | 
2 | O=[N+]([O-])c1ccc(Cl)cc1N/N=C/c1cccc2cccnc12 |  | > 100 µM (inactive) | > 100 µM (inactive) | > 100 µM (inactive) | > 100 µM (inactive) |  | 31.3 µM (inactive) | > 100 µM (inactive) | > 100 µM (inactive) | 92.7 µM (inactive) | > 100 µM |  | 79.1 µM (inactive) | > 100 µM (inactive) | > 100 µM (inactive) | 54 µM (inactive) |  | > 100 µM (inactive) | 95.1 µM (inactive) | > 100 µM (inactive)
3 | CC1=C(C(=O)NCc2ccccc2)C(c2ccc(Cl)c(Cl)c2)C(C(=O)NCc2ccccc2)=C(C)N1 | > 100 µM (inactive) | > 100 µM (inactive) | > 100 µM (inactive) |  | > 100 µM (inactive) | > 100 µM (inactive) | > 100 µM (inactive) | > 100 µM (inactive) | > 100 µM (inactive) | > 100 µM (inactive) | > 100 µM | > 100 µM (inactive) | > 100 µM (inactive) | > 100 µM (inactive) | > 100 µM (inactive) | > 100 µM (inactive) | > 100 µM (inactive) |  | > 100 µM (inactive) | > 100 µM (inactive)
4 | CCC1OC(=O)CC(O)C(C)C(OC2OC(C)C(O)C(N(C)C)C2O)C(CC=O)CC(C)C(=O)/C=C/C2(C)OC2C1C (stereo unspecified) | 16.8 µM (inactive) | 25.8 µM (inactive) | 40.1 µM (inactive) |  | 23.1 µM (inactive) | 47.3 µM (inactive) | 44.4 µM (inactive) | 20.2 µM (inactive) | 23.3 µM (inactive) | 55.1 µM (inactive) | 32.1 µM |  | 30.2 µM (inactive) | 33.4 µM (inactive) | 34.2 µM (inactive) | 17.9 µM (inactive) | 48.3 µM (inactive) | 21.5 µM (inactive) | 25.2 µM (inactive) | 15.3 µM (inactive)
5 | CN(N)c1cc(=O)[nH]c(=O)[nH]1 | > 100 µM (inactive) | > 100 µM (inactive) | > 100 µM (inactive) | > 100 µM (inactive) | > 100 µM (inactive) |  | > 100 µM (inactive) | > 100 µM (inactive) | > 100 µM (inactive) | > 100 µM (inactive) | > 100 µM |  |  | > 100 µM (inactive) | > 100 µM (inactive) | > 100 µM (inactive) |  |  | > 100 µM (inactive) | > 100 µM (inactive)
6 | CCCCCCCCCCCCN1[C@H]2CCC[C@H]2C(O)[C@@H]2CCC[C@@H]21 (stereo partly specified) | 81.8 µM (inactive) | > 100 µM (inactive) |  | > 100 µM (inactive) | 98.9 µM (inactive) | > 100 µM (inactive) | > 100 µM (inactive) | > 100 µM (inactive) | > 100 µM (inactive) | > 100 µM (inactive) | 56.4 µM | > 100 µM (inactive) | 77.4 µM (inactive) | > 100 µM (inactive) |  | 53.8 µM (inactive) | > 100 µM (inactive) |  |  | 68.2 µM (inactive)
7 | COC(=O)c1c[nH]c2nc(N3CCOCC3)nn2c1=O | > 100 µM (inactive) | > 100 µM (inactive) | > 100 µM (inactive) |  | 1.84 µM (inactive) | > 100 µM (inactive) | > 100 µM (inactive) | > 100 µM (inactive) | > 100 µM (inactive) | > 100 µM (inactive) | > 100 µM | > 100 µM (inactive) | > 100 µM (inactive) | > 100 µM (inactive) | > 100 µM (inactive) | > 100 µM (inactive) | > 100 µM (inactive) |  | > 100 µM (inactive) | > 100 µM (inactive)
8 | CC(NC(=O)C(OC(=O)C(C)NC(=O)OC(C)(C)C)C(C)C)C(=O)OC(C(=O)O)C(C)C (stereo unspecified) |  | > 100 µM (inactive) | > 100 µM (inactive) | > 100 µM (inactive) | > 100 µM (inactive) | > 100 µM (inactive) | > 100 µM (inactive) | > 100 µM (inactive) | > 100 µM (inactive) |  | > 100 µM | > 100 µM (inactive) | > 100 µM (inactive) | > 100 µM (inactive) | > 100 µM (inactive) |  | > 100 µM (inactive) |  | > 100 µM (inactive) | > 100 µM (inactive)
9 | C[C@@H]1CC(=O)C[C@@H]2CC[C@H]3[C@@H]4CC[C@H](OC(=O)c5cccc6cc7ccccc7nc56)[C@H]4CC[C@@H]3[C@H]21 | 15.6 µM (inactive) | 15.7 µM (inactive) | 16.7 µM (inactive) | 20.9 µM (inactive) | 3.89 µM (inactive) | 18.8 µM (inactive) | 17.7 µM (inactive) | 15.8 µM (inactive) | 15.2 µM (inactive) | 13.6 µM (inactive) | 14.2 µM | 23.3 µM (inactive) | 7.11 µM (inactive) | 22.8 µM (inactive) | 27.9 µM (inactive) | 14.1 µM (inactive) | 17.1 µM (inactive) |  | 16.7 µM (inactive) | 14.3 µM (inactive)
10 | Cc1c(NC(=S)N/N=C\C(=N/NC(=S)Nc2c(C)n(C)n(-c3ccccc3)c2=O)c2ccccc2)c(=O)n(-c2ccccc2)n1C |  | > 100 µM (inactive) | > 100 µM (inactive) | > 100 µM (inactive) |  | > 100 µM (inactive) | > 100 µM (inactive) | > 100 µM (inactive) | > 100 µM (inactive) | > 100 µM (inactive) | > 100 µM | > 100 µM (inactive) | > 100 µM (inactive) | > 100 µM (inactive) | > 100 µM (inactive) | > 100 µM (inactive) | > 100 µM (inactive) |  | > 100 µM (inactive) | > 100 µM (inactive)
11 | CC1=C(CC2C(=O)N(c3ccccc3)S(=O)(=O)NC2C)C(=O)N(c2ccccc2)S(=O)(=O)N1C (stereo unspecified) | > 100 µM (inactive) | > 100 µM (inactive) | > 100 µM (inactive) |  | > 100 µM (inactive) | > 100 µM (inactive) | > 100 µM (inactive) | > 100 µM (inactive) | > 100 µM (inactive) | > 100 µM (inactive) | > 100 µM | > 100 µM (inactive) | > 10 µM (inactive) | > 100 µM (inactive) | > 100 µM (inactive) | > 100 µM (inactive) | > 100 µM (inactive) |  | > 100 µM (inactive) | > 100 µM (inactive)
12 | CO[C@@H](c1ccccc1)[C@H](O)[C@](O)(c1ccccc1)P(=O)(OC)OC | > 100 µM (inactive) | > 100 µM (inactive) | > 100 µM (inactive) | > 100 µM (inactive) | > 100 µM (inactive) | > 100 µM (inactive) | > 100 µM (inactive) | > 100 µM (inactive) | > 100 µM (inactive) | > 100 µM (inactive) | > 100 µM | 91.6 µM (inactive) | > 100 µM (inactive) |  | > 100 µM (inactive) | > 100 µM (inactive) | > 100 µM (inactive) |  | > 100 µM (inactive) | > 100 µM (inactive)
13 | CNC(=S)NNc1ncnc2c1ncn2-c1ccc(C)cc1 | > 100 µM (inactive) |  | > 100 µM (inactive) | > 100 µM (inactive) | > 100 µM (inactive) | > 100 µM (inactive) | > 100 µM (inactive) | > 100 µM (inactive) | > 100 µM (inactive) | > 100 µM (inactive) | > 100 µM | > 100 µM (inactive) | > 100 µM (inactive) | > 100 µM (inactive) | > 100 µM (inactive) | > 100 µM (inactive) | > 100 µM (inactive) |  | > 100 µM (inactive) | > 100 µM (inactive)
14 | Fc1cccc(/C=N/C23CC4CC(CC(C4)C2)C3)c1 | > 100 µM (inactive) | > 100 µM (inactive) | > 100 µM (inactive) |  | > 100 µM (inactive) | > 100 µM (inactive) | > 100 µM (inactive) | > 100 µM (inactive) | > 100 µM (inactive) | > 100 µM (inactive) | > 100 µM | > 100 µM (inactive) | > 100 µM (inactive) | > 100 µM (inactive) | > 100 µM (inactive) | > 100 µM (inactive) | > 100 µM (inactive) |  | > 100 µM (inactive) | > 100 µM (inactive)
15 | Clc1ccc(OCc2nnc3n2N=C(c2ccccc2)CS3)cc1 | 17 µM (inactive) | 10.9 µM (inactive) |  |  | 4.47 µM (inactive) | 21.3 µM (inactive) | 18.7 µM (inactive) | 16.3 µM (inactive) | 16.9 µM (inactive) | 15.6 µM (inactive) | 13.8 µM | 20.9 µM (inactive) | 17.9 µM (inactive) | 19.1 µM (inactive) | 27.3 µM (inactive) | 11.2 µM (inactive) | 18 µM (inactive) |  | 18.2 µM (inactive) | 15.9 µM (inactive)
16 | COc1nc(C(=O)NNC(=O)c2nc(OC)c3ccccc3c2-c2ccccc2)c(-c2ccccc2)c2ccccc12 |  | > 100 µM (inactive) | > 100 µM (inactive) | > 100 µM (inactive) | > 100 µM (inactive) | > 100 µM (inactive) | > 100 µM (inactive) | > 100 µM (inactive) | > 100 µM (inactive) | > 100 µM (inactive) | > 100 µM |  | > 100 µM (inactive) | > 100 µM (inactive) | > 100 µM (inactive) | > 100 µM (inactive) | > 100 µM (inactive) | > 100 µM (inactive) |  | > 100 µM (inactive)
